From US11001563B2, “SSAO inhibitor” (SHANDONG DANHONG PHARMACEUTICAL CO., LTD., priority 2017, dated 2021) come the findings set out here.

Structures are written as SMILES.

One series deals with VAP-1/SSAO (Homo sapiens (Human), UniProt Q16853). Briefly: Human VAP-1 enzyme activity assay (Amplex Red Monoamine Oxidase kit). It counts as biochemical. The following applies: 10 nM VAP-1 enzyme, 30 min preincubation, benzylamine substrate; read-out: Human Recombinant VAP-1/SSAO Enzyme Inhibitory Activity IC50. How it is done: Human VAP-1 enzyme activity assay:
The inhibition of the sample on VAP-enzyme activity was measured by using an Amplex® Red Monoamine Oxidase kit (Invitrogen #A12214). 100 nL of the gradiently-diluted to-be-tested compound (solvent DMSO) was added to a 384-well plate. 25 μL of 10 nM VAP-1 enzyme solution was added and incubated for 30 minutes at room temperature. A substrate mixture of VAP-1 enzyme (200 μM Amplex Red, 1 U/mL HRP, 1 mM Benzylamine) was added and incubated for 60 minutes at room temperature. After the incubation, the fluorescent signal was read with a microplate reader Envision (excitation light wavelength 530-560 nm, emission light wavelength 590 nm). The fluorescence signal value after the background signal was removed was analyzed by Prism software, and the IC50 of the sample against the VAP-1 enzyme was calculated.

Series [1] concerns CCl4-induced chronic liver fibrosis. Briefly: Oral CCl4-induced chronic liver fibrosis male C57BL/6 model. It counts as in vivo, C57BL/6 mice. The following applies: oral daily for 28 days, in words. On the procedure: The therapeutic effect of compounds on an oral CCl4-induced chronic liver fibrosis male C57BL/6 model was tested. Male C57BL/6 mice, 7-8 weeks old; Experimental method: Male C57BL/6 mice were orally administered from the day CCl4 was put for modeling, and administered daily. Continuous administration was conducted for 28 days. The animals were fasted for at least 6 hours on the next day after the last administration. Animal weight was measured during euthanasia and all animals were euthanized under the guidance of the KCl Animal Euthanasia SOP. Non-anticoagulant venous blood of mice was collected from the ocular venous plexus. The whole blood was allowed to stand at room temperature for 30 minutes, and centrifuged at 5000 rpm for 5 minutes, and the serum was separated and placed in a 1.5 ml EP tube and stored at -80° C. After the whole body of the animal was perfused with hypothermic saline, the liver was taken and subjected to tissue gross image acquisition. The left lobe of the liver was divided into 4 equal parts and put into 4 tissue cryotubes for liquid nitrogen freezing, and then transferred to -80 OC for storage. The rest of the liver tissue was fixed in 10% neutral formalin fixative. […] HE staining was subjected to double-blind score by two pathological readers, and the area of hepatic fibrosis was analyzed for sirius-red stained sections by digital pathology.

Series [2] is described as follows: Compound pharmacokinetic evaluation in CD-1 mice. It counts as in vivo, CD-1 mouse. The following applies: male, mouse, plasma. On the procedure: Experimental purpose: compound pharmacokinetics were tested in CD-1 mice
CD-1 mouse (Male, 25-35 g, 6-9 weeks old, Shanghai Slack);
Experimental procedure: the pharmacological characteristics of the compound after intravenous and oral administration were tested in rodents by standard protocol, candidate compounds in the experiment was prepared into clear solutions to be administered to the mice in a single intravenous injection and orally. The intravenous and oral solvents were a certain proportion of an aqueous hydroxypropyl β-cyclodextrin solution or a physiological saline solution. Whole blood samples within 24 hours were collected, and centrifuged at 3000 g for 15 minutes, the supernatant was separated to obtain plasma samples, 4 times volume of acetonitrile solution containing internal standard was added to precipitate protein, centrifuging was conducted to take the supernatant, equal volume of water was added and centrifuging was conducted to take the supernatant to be sampled. The LC-MS/MS analysis method was used to quantitatively analyze the plasma concentration, and the pharmacokinetic parameters such as peak concentration, peak time, clearance rate, half-life, area under the drug concentration-time curve, and bioavailability were calculated.

A short description of series [3]: Compound pharmacokinetic evaluation in SD rats. It counts as in vivo. Conditions: male, Sprague-Dawley, rat, plasma. How it is done: Experimental purpose: compound pharmacokinetics were tested in SD rats
Sprague Dawley rats (male, 200-300 g, 7-9 weeks old, Shanghai Slack)
Experimental procedure: the pharmacological characteristics of the compound after intravenous and oral administration were tested in rodents by standard protocol, candidate compounds in the experiment was prepared into clear solutions to be administered to the rats in a single intravenous injection and orally. The intravenous and oral solvents were a certain proportion of an aqueous hydroxypropyl 3-cyclodextrin solution or a physiological saline solution. Whole blood samples within 24 hours were collected, and centrifuged at 3000 g for 15 minutes, the supernatant was separated to obtain plasma samples, 4 times volume of acetonitrile solution containing internal standard was added to precipitate protein, centrifuging was conducted to take the supernatant, equal volume of water was added and centrifuging was conducted to the supernatant to be sampled. The LC-MS/MS analysis method was used to quantitatively analyze the plasma concentration, and the pharmacokinetic parameters such as peak concentration, peak time, clearance rate, half-life, area under the drug concentration-time curve, and bioavailability were calculated.

Where [4] appears, read: po, read-out: Bioavailability F.
Where [5] appears, read: single intravenous injection and oral, read-out: Peak Concentration Cmax.

Chain of VAP-1/SSAO (Q16853 whole entry): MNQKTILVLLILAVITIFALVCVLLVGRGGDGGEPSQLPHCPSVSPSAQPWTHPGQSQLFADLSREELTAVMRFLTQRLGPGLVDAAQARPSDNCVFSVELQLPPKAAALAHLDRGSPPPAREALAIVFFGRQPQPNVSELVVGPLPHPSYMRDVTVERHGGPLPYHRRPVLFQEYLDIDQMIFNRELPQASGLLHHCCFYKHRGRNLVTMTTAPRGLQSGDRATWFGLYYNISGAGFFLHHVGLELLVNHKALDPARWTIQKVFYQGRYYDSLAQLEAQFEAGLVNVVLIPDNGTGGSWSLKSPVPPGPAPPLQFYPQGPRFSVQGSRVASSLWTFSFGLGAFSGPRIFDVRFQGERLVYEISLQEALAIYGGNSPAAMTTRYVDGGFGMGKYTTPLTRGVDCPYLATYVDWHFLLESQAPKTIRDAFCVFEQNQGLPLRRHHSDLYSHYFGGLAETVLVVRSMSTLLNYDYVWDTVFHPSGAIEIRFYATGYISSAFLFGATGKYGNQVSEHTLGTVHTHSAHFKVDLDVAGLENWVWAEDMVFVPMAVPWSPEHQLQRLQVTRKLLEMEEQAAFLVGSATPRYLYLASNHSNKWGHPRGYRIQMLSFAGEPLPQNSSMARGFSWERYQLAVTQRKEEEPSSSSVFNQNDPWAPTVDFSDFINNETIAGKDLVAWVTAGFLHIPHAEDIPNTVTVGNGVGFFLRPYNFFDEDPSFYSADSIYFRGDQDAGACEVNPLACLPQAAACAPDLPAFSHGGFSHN

Take `Cl.Cn1nc(-c2ccc(OC/C(=C/F)CN)cc2)nc1C(F)F` [WX126]: the IC50 on VAP-1/SSAO is 0.2 nM. Further, the “Effect on liver fibrosis (Sirius-Red staining)” value in series [1] was “obvious improvement effect”. Further, in series [1], the “Effect on liver injury (HE staining score)” value is on record as “obvious improvement effect”. Further, the AUC came to 6.49 µM·h in series [2] (oral, read-out: Concentration Integral AUC) and 9.31 µM·h in series [3] (read-out: Concentration Integral AUC). Moreover, the Tmax was determined as 0.5 h in series [2] (oral, read-out: Peak Time Tmax) and 1.5 h in series [3] (oral, read-out: Peak Time Tmax). Further, the bioavailability came to 102% in series [2] (setting [4]) and 99% in series [3] (setting [4]). For the same molecule, the figures for the Cmax in series [2] (setting [5]) and in series [3] (setting [5]) were 3530 nM and 2340 nM, respectively.
